Measurements taken from paper PMC11060137, “A Phase I Study of KIN-3248, an Irreversible Small-molecule Pan-FGFR Inhibitor, in Patients with Advanced FGFR2/3-driven Solid Tumors” (Cancer Research Communications, 2024).
Like-named read-outs stand apart in the source and are kept apart here.

How the values were obtained:
[1] = system: patients with advanced solid tumors harboring FGFR2 and/or FGFR3 gene alterations
Description: The study was divided into two parts. […] The secondary objectives included antitumor activity in Part A, determination of pharmacokinetics and pharmacodynamics.
Dose level 1 was started at 5 mg oral daily, and patients were escalated on study to 50 mg daily. On the basis of ongoing efficacy, toxicity, and pharmacokinetic analysis, a planned amendment added additional cohorts up to 80 mg orally daily to define the MTD/RP2D. […] One cycle was 28 days of continuous dosing. Intrapatient dose escalation after safely tolerating two cycles was allowed if per protocol criteria were met. Patients continued therapy until evidence of disease progression, intolerance or unacceptable toxicity, withdrawal of consent, investigator decision, sponsor decision, or death.
Patients were evaluated with medical history, physical examinations, and clinical laboratory on days 1, 8, 15, and 22 of cycle 1; days 1 and 15 from cycle 2 through cycle 5; and day 1 of each subsequent cycle. […] Except for hyperphosphatemia, adverse events (AE) were graded according to the NCI-CTCAE (Common Terminology Criteria for Adverse Events) Version 5.0 at each study visit and for approximately 30 days following end of treatment.
The primary endpoints for the overall study, included: the incidence of DLTs, incidence of AEs, treatment-emergent AEs (TEAE), and treatment-related AEs (TRAE).

[2] = system: gatekeeper (V564F) resistance mutation; set-up: method as in PMID 38267212; details: cited from earlier work
[3] = Plasma pharmacokinetics in patients (LC/MS-MS, noncompartmental); assay type: in vivo, human
Description: Blood for pharmacokinetic analysis was collected C1D1 (pretreatment and postdose at 0.25, 0.5, 1, 2, 4, 6, 8, 10 hours), […] (pretreatment, postdose at 1 and 2 hours), C1D8 and day 15 (pretreatment, postdose 1 hour), C2D1 (pretreatment, postdose at 0.25, 0.5, 1, 2, 4, 6, 8, 10 hours), and pretreatment and 1 hour postdose on day 1 of C3, C4 and cycle 5. KIN-3248 concentration was determined at each timepoint by an established and validated LC/MS-MS assay.

phospho-ERK = test: Phospho-ERK relative to total ERK by IHC in paired biopsies; assay type: in vivo, human
Description: (§1) As FGFR1 is expressed in renal tubules and pharmacologic inhibition of FGFR1 leads to phosphate retention ([18]), serum phosphate levels were measured at each study visit as a pharmacodynamic biomarker. Paired pretreatment and on-treatment biopsies (cycle 1 day 8 to day 21) were collected and analyzed for phospho-ERK and total ERK by IHC. DUSP6 gene expression was measured in tumor samples using RNA ISH (RNAscope; probes from Advanced Cell Diagnostics).

[4] = system: FGFR2/3-driven cholangiocarcinoma, gastric, and bladder cancer xenograft models; set-up: method as in PMID 38267212; details: cited from earlier work
ctDNA = ctDNA molecular response (change in mean VAF, PredicineATLAS); assay type: in vivo, human; details: after 1 cycle; 26 patients evaluable for RECIST and ctDNA response
Source text: Whole blood was collected into Streck Cell Free BCT DNA tubes on cycle 1 day 1 and cycle 2 day 1. Samples were processed to extract plasma followed by cell-free DNA isolation, which was then interrogated by PredicineATLAS, a 600 gene assay able to detect SNVs, indels, rearrangements, fusions, and copy-number gains, as described previously ([19]).
For each patient with available paired ctDNA, the change in ctDNA after one cycle of treatment was summarized by calculating the mean variant allele frequency (VAF) of all somatic mutations at each timepoint and then taking the ratio as follows: [(mean VAF^C2D1/mean VAF^C1D1) −1]*100 ([20]). For somatic mutations detected in only one sample of a patient-matched pair, the VAF was imputed to be zero for calculation purposes, when the mutation was not detected. Change in match pair ctDNA was correlated both categorically with RECIST v 1.1 response and continuously (Pearson R) with the best % change in target lesions. Biomarker analyses were conducted using R [R Core Team 2023 ([21])].

[5] = system: advanced solid tumors harboring FGFR2 and/or FGFR3 gene alterations; test: Antitumor activity by RECIST v1.1; assay type: in vivo, human
serum phosphate = test: Serum phosphate as pharmacodynamic biomarker; assay type: in vivo, human
Description: as §1

[6] = system: molecular break (N549H) resistance mutation; set-up: method as in PMID 38267212; details: cited from earlier work
wild-type FGFR = system: wild-type FGFR; set-up: method as in PMID 38267212; details: cited from earlier work

C=CC(=O)N1C[C@@H](n2nc(C#Cc3c(F)cc4c(ncn4C4CC4)c3F)c(C(N)=O)c2NC)C[C@@H]1COC [KIN-3248]
TEAE Skin and subcutaneous tissue disorders, n (%) ([1]; CTCAE (V5) Grade 3, N = 54): 0 | TEAE Stomatitis, n (%) ([1]; CTCAE (V5) Grade 3, N = 54): 0 | TEAE Vascular disorders, n (%) ([1]; CTCAE (V5) Grade 3, N = 54): 3 (5.6%) | Patient with any TEAE, n (%) ([1]; CTCAE (V5) Grade 4–5, N = 54): 7 (13.0%) | TEAE Alanine aminotransferase increased, n (%) ([1]; CTCAE (V5) Grade 4–5, N = 54): 0 | TEAE Anemia, n (%) ([1]; CTCAE (V5) Grade 4–5, N = 54): 0 | TEAE Aspartate aminotransferase increased, n (%) ([1]; CTCAE (V5) Grade 4–5, N = 54): 0 | TEAE Blood and lymphatic system disorders, n (%) ([1]; CTCAE (V5) Grade 4–5, N = 54): 0 | TEAE Blood creatinine increased, n (%) ([1]; CTCAE (V5) Grade 4–5, N = 54): 0 | TEAE Constipation, n (%) ([1]; CTCAE (V5) Grade 4–5, N = 54): 0 | TEAE Decreased appetite, n (%) ([1]; CTCAE (V5) Grade 4–5, N = 54): 0 | TEAE Diarrhea, n (%) ([1]; CTCAE (V5) Grade 4–5, N = 54): 0 | TEAE Dry mouth, n (%) ([1]; CTCAE (V5) Grade 4–5, N = 54): 0 | TEAE Eye disorders, n (%) ([1]; CTCAE (V5) Grade 4–5, N = 54): 0 | TEAE Fatigue, n (%) ([1]; CTCAE (V5) Grade 4–5, N = 54): 0 | TEAE Gastrointestinal disorders, n (%) ([1]; CTCAE (V5) Grade 4–5, N = 54): 0 | TEAE General disorders and administration site conditions, n (%) ([1]; CTCAE (V5) Grade 4–5, N = 54): 1 (1.9%) | TEAE Hypercalcemia, n (%) ([1]; CTCAE (V5) Grade 4–5, N = 54): 0 | TEAE Hyperphosphatemia, n (%) ([1]; CTCAE (V5) Grade 4–5, N = 54): 0 | TEAE Infections and infestations, n (%) ([1]; CTCAE (V5) Grade 4–5, N = 54): 2 (3.7%) | TEAE Investigations, n (%) ([1]; CTCAE (V5) Grade 4–5, N = 54): 2 (3.7%) | TEAE Metabolism and nutrition disorders, n (%) ([1]; CTCAE (V5) Grade 4–5, N = 54): 0 | TEAE Musculoskeletal and connective tissue disorders, n (%) ([1]; CTCAE (V5) Grade 4–5, N = 54): 0 | TEAE Nausea, n (%) ([1]; CTCAE (V5) Grade 4–5, N = 54): 0 | TEAE Nervous system disorders, n (%) ([1]; CTCAE (V5) Grade 4–5, N = 54): 1 (1.9%) | TEAE Psychiatric disorders, n (%) ([1]; CTCAE (V5) Grade 4–5, N = 54): 0 | TEAE Respiratory, thoracic, and mediastinal disorders, n (%) ([1]; CTCAE (V5) Grade 4–5, N = 54): 1 (1.9%) | TEAE Skin and subcutaneous tissue disorders, n (%) ([1]; CTCAE (V5) Grade 4–5, N = 54): 0 | TEAE Stomatitis, n (%) ([1]; CTCAE (V5) Grade 4–5, N = 54): 0 | TEAE Vascular disorders, n (%) ([1]; CTCAE (V5) Grade 4–5, N = 54): 0 | MTD ([1]; doses up to 50 mg orally daily): not reached | Treatment-related deaths ([1]; in vivo): no treatment-related deaths | Treatment-related grade 3 hyperphosphatasemia ([1]; only event reported in more than 1 patient): 14.8% | TEAE deaths ([1]; three related to progressive disease, one to a cardiovascular accident): Four | IC50 [2]: low nanomolar | Exposure versus dose ([3]; 5-50 mg): generally dose proportional | Concentrations in Asian (China, Taiwan, Korean) versus non-Asian patients ([3]; exploratory analysis): not a qualitative difference | Accumulation ([3]; first two cycles): not observed | Apparent clearance (CL/F) ([3]; human, in vivo): 23,300-32,100 mL/hour | Steady-state geometric mean half-life (t1/2) ([3]; human, in vivo): approximately 4 hours | Volume of distribution (V/F) ([3]; human, in vivo): 135,000-200,000 mL | Phospho-ERK relative to total-ERK (phospho-ERK; eleven paired biopsy samples, IHC): trend toward reduction | Samples tested with a reduction in p-ERK (phospho-ERK; paired pretreatment and on-treatment biopsies): 50% | Tumor inhibition [4]: dose-dependent tumor inhibition | Patients with greater than 50% decrease in mean VAF (ctDNA): Six | Best response in pretreated ICC patients with FGFR2 kinase domain resistance mutations ([5]; 3 patients): progressive disease | Response in FGFR2/3 fusion patients ([5]; 5 patients): 20% | ORR ([5]; 54 patients): 9.25% | Responders among FGFR inhibitor pretreated patients with acquired FGFR resistance mutations in ctDNA ([5]; of 4 patients, gastric cancer): 1 | Confirmed responders among FGFR inhibitor experienced patients ([5]; of 23 patients): 1 | Confirmed responders among FGFR inhibitor naïve patients ([5]; of 31 patients): 3 | Responders among FGFR inhibitor naïve patients ([5]; of 31 patients): 4 | Patients achieving CR ([5]; of 54 patients enrolled): none | Patients achieving PR ([5]; of 54 patients enrolled): 5 | DCR ([5]; total population): 46% | Patients achieving SD ([5]; twenty patients): 37.0% | Serum phosphate versus dose and exposure (serum phosphate; 54 participants): increased with dose and exposure | Onset of serum phosphate elevations (serum phosphate; all dose levels): within the f irst week | IC50 [6]: low nanomolar | IC50 (wild-type FGFR): low nanomolar
